# Assay results from ChEMBL document CHEMBL5528017, “Design and synthesis of dual BRD4/Src inhibitors for treatment of triple-negative breast cancer” (Eur J Med Chem, 2024).
# Active and inactive are the calls of the source. The calls are words filed in the database; no cut-off is given here.
# Legend:
# [1] = system: MDA-MB-231; assay: cells; details: Homo sapiens, MDA-MB-231, 72 h
# Description: Antiproliferative activity against human MDA-MB-231 cells assessed as inhibition of cell viability incubated for 72 hrs by CCK8 assay
# [2] = molecular target: Bromodomain-containing protein 4 (Homo sapiens, UniProt O60885); assay: Inhibition of His6-tagged recombinant BRD4 BD1 domain (44 to 168 residues) (unknown origin) expressed in Escherichia coli BL21(DE3) incubated for 0.5 hrs by FITC-labeled JQ1 based competitive fluorescence polarization assay
# [3] = system: MDA-MB-231; assay: Induction of apoptosis in human MDA-MB-231 cells assessed as proportion of viable cells at 0.5 uM incubated for 36 hrs by AnnexinV-FITC/PI staining based flow cytometry (reference value: 93.6%); format: functional
# [4] = system: MDA-MB-231; assay: Induction of cell cycle arrest in human MDA-MB-231 cells assessed as proportion of cells at G1 phase at 0.1 uM incubated for 24 hrs by propidium iodide staining based flow cytometry (reference value: 59.5%); format: functional
# [5] = system: MDA-MB-231; assay: Induction of cell cycle arrest in human MDA-MB-231 cells assessed as downregulation of cyclin B1 expression at 0.1 uM incubated for 24 hrs by western blot analysis; format: functional, cell-based
# [6] = system: MDA-MB-231; assay: Induction of apoptosis in human MDA-MB-231 cells assessed as proportion of early apoptotic cells at 0.5 uM incubated for 36 hrs by AnnexinV-FITC/PI staining based flow cytometry (reference value: 5.05%); format: functional
# [7] = system: MDA-MB-231; assay: Inhibition of cell migration in human MDA-MB-231 cells at 0.05 uM incubated for 12 hrs by wound healing assay; format: functional, cell-based
# [8] = system: MDA-MB-231; assay: Induction of cell cycle arrest in human MDA-MB-231 cells assessed as proportion of cells at S phase at 0.1 uM incubated for 24 hrs by propidium iodide staining based flow cytometry (reference value: 28.2%); format: functional
# [9] = system: MDA-MB-231; assay: Induction of cell cycle arrest in human MDA-MB-231 cells assessed as […] in cyclin D1 expression at 0.1 uM incubated for 24 hrs by western blot analysis; format: functional, cell-based
# [10] = system: MDA-MB-231; assay: Inhibition of cell invasion in human MDA-MB-231 cells assessed as decrease in number of invading cells at 0.1 uM incubated for 16 hrs by matrigel coated transwell assay; format: functional, cell-based
# [11] = system: MDA-MB-231; assay: Antitumor activity against human MDA-MB-231 cells xenografted in NOD-SCID mouse assessed as inhibition of tumor growth at 30 mg/kg, ip administered 5 days per week for 27 days; format: functional; details: time 27 day
# [12] = system: MDA-MB-231; assay: Induction of cell cycle arrest in human MDA-MB-231 cells assessed as proportion of cells at G2 phase at 0.1 uM incubated for 24 hrs by propidium iodide staining based flow cytometry (reference value: 11.6%); format: functional
# [13] = system: MDA-MB-231; assay: Induction of apoptosis in human MDA-MB-231 cells assessed as proportion of late apoptotic cells at 0.5 uM incubated for 36 hrs by AnnexinV-FITC/PI staining based flow cytometry (reference value: […]%); format: functional
# [14] = system: MDA-MB-231; assay: Induction of apoptosis in human MDA-MB-231 cells assessed as proportion of necrotic cells at 0.5 uM incubated for 36 hrs by AnnexinV-FITC/PI staining based flow cytometry (reference value: 0%); format: functional
# [15] = system: MDA-MB-231; assay: Induction of cell cycle arrest in human MDA-MB-231 cells assessed as increase in p21 expression at 0.1 uM incubated for 24 hrs by western blot analysis; format: functional, cell-based
# [16] = system: MCF7; assay: Antiproliferative activity against human MCF7 cells assessed as inhibition of cell viability incubated for 3 to 4 days by CCK8 assay; format: functional, cell-based; details: time 3-4 day
# [17] = system: CWR22R; assay: Antiproliferative activity against human 22Rv1 cells assessed as inhibition of cell viability incubated for 3 to 4 days by CCK8 assay; format: functional, cell-based; details: time 3-4 day
# [18] = system: MDA-MB-231; assay: Antitumor activity against human MDA-MB-231 cells xenografted in NOD-SCID mouse assessed as inhibition of tumor growth at 30 mg/kg, po administered 5 days per week for 27 days; format: functional; details: MDA-MB-231, 648 h, time 27 day, read-out: TGI
# [19] = system: MDA-MB-231; assay: Induction of cell cycle arrest in human MDA-MB-231 cells assessed as decrease in cyclin D1 expression at 0.1 uM incubated for 24 hrs by western blot analysis; format: functional, cell-based
# [20] = system: A549; assay: Antiproliferative activity against human A549 cells assessed as inhibition of cell viability incubated for 3 to 4 days by CCK8 assay; format: functional, cell-based; details: time 3-4 day
smiles,measurement,setting,value
Cc1nc(Nc2ncc(C(=O)Nc3c(C)cccc3Cl)s2)cc(N2CCN(C(=O)[C@@H]3CCCCN3C(=O)C[C@@H]3N=C(c4ccc(Cl)cc4)c4c(sc(C)c4C)-n4c(C)nnc43)CC2)n1,IC50,[1],5000 nM
same,IC50,[2],> 1000 nM
CC[C@H](C)[C@H](NC(=O)C[C@@H]1N=C(c2ccc(Cl)cc2)c2c(sc(C)c2C)-n2c(C)nnc21)C(=O)OCCN1CCN(c2cc(Nc3ncc(C(=O)Nc4c(C)cccc4Cl)s3)nc(C)n2)CC1,IC50,[1],340 nM
same,IC50,[2],> 1000 nM
Cc1nc(Nc2ncc(C(=O)Nc3c(C)cccc3Cl)s2)cc(N2CCN(CCOC(=O)[C@@H]3CCCCN3C(=O)C[C@@H]3N=C(c4ccc(Cl)cc4)c4c(sc(C)c4C)-n4c(C)nnc43)CC2)n1,IC50,[1],240 nM
same,IC50,[2],> 1000 nM
Cc1sc2c(c1C)C(c1ccc(Cl)cc1)=N[C@@H](CC(=O)OC(C)(C)C)c1nnc(C)n1-2,Activity,[3],83.8%
same,IC50,[1],896 nM
same,Activity,[4],73.3%
same,Activity,[5],Active
same,Activity,[6],13.3%
same,inhibition,[7],Active
same,Activity,[8],17.5%
same,Activity,[9],Active
same,inhibition,[10],inactive
same,TGI,[11],63.6%
same,Activity,[12],8.53%
same,Activity,[13],2.9%
same,Activity,[14],0%
same,Activity,[15],Active
Cc1nc(Nc2ncc(C(=O)Nc3c(C)cccc3Cl)s2)cc(N2CCN(CCOC(=O)CCCCCNC(=O)C[C@@H]3N=C(c4ccc(Cl)cc4)c4c(sc(C)c4C)-n4c(C)nnc43)CC2)n1,IC50,[1],1080 nM
Cc1nc(Nc2ncc(C(=O)Nc3c(C)cccc3Cl)s2)cc(N2CCN(CCOC(=O)CNC(=O)C[C@@H]3N=C(c4ccc(Cl)cc4)c4c(sc(C)c4C)-n4c(C)nnc43)CC2)n1,IC50,[1],22 nM
Cc1nc(Nc2ncc(C(=O)Nc3c(C)cccc3Cl)s2)cc(N2CCN(C(=O)CCCCCCCNC(=O)C[C@@H]3N=C(c4ccc(Cl)cc4)c4c(sc(C)c4C)-n4c(C)nnc43)CC2)n1,IC50,[1],757 nM
Cc1nc(Nc2ncc(C(=O)Nc3c(C)cccc3Cl)s2)cc(N2CCN(CCOC(=O)[C@H](CC(C)C)NC(=O)C[C@@H]3N=C(c4ccc(Cl)cc4)c4c(sc(C)c4C)-n4c(C)nnc43)CC2)n1,IC50,[1],240 nM
CSCC[C@H](NC(=O)C[C@@H]1N=C(c2ccc(Cl)cc2)c2c(sc(C)c2C)-n2c(C)nnc21)C(=O)OCCN1CCN(c2cc(Nc3ncc(C(=O)Nc4c(C)cccc4Cl)s3)nc(C)n2)CC1,IC50,[1],58 nM
Cc1nc(Nc2ncc(C(=O)Nc3c(C)cccc3Cl)s2)cc(N2CCN(CCOC(=O)CCOCCOCCOCCNC(=O)C[C@@H]3N=C(c4ccc(Cl)cc4)c4c(sc(C)c4C)-n4c(C)nnc43)CC2)n1,IC50,[1],167 nM
Cc1nc(Nc2ncc(C(=O)Nc3c(C)cccc3Cl)s2)cc(N2CCN(C(=O)CCCCCNC(=O)C[C@@H]3N=C(c4ccc(Cl)cc4)c4c(sc(C)c4C)-n4c(C)nnc43)CC2)n1,IC50,[1],300 nM
Cc1nc(Nc2ncc(C(=O)Nc3c(C)cccc3Cl)s2)cc(N2CCN(CCOC(=O)C(NC(=O)C[C@@H]3N=C(c4ccc(Cl)cc4)c4c(sc(C)c4C)-n4c(C)nnc43)C(C)C)CC2)n1 (some centres not stated),IC50,[1],172 nM
Cc1nc(Nc2ncc(C(=O)Nc3c(C)cccc3Cl)s2)cc(N2CCN(CCOC(=O)C[C@@H]3N=C(c4ccc(Cl)cc4)c4c(sc(C)c4C)-n4c(C)nnc43)CC2)n1,IC50,[1],52 nM
Cc1nc(Nc2ncc(C(=O)Nc3c(C)cccc3Cl)s2)cc(N2CCN(CCO)CC2)n1 [DASATINIB ANHYDROUS],Activity,[16],Active
same,Activity,[3],80.9%
same,Activity,[17],Active
same,IC50,[1],157 nM
same,inhibition in vivo at 30 mg/kg,[18],44.7%
same,Activity,[19],Active
same,Activity,[4],74.5%
same,Activity,[5],Active
same,Activity,[20],Active
same,Activity,[6],14.6%
same,inhibition,[7],Active
same,Activity,[8],15.8%
same,inhibition,[10],Active
same,Activity,[12],7.75%
same,Activity,[13],4.45%
same,Activity,[14],0.002%
same,Activity,[15],Active
Cc1nc(Nc2ncc(C(=O)Nc3c(C)cccc3Cl)s2)cc(N2CCN(CCOC(=O)[C@H](CC(=O)OC(C)(C)C)NC(=O)C[C@@H]3N=C(c4ccc(Cl)cc4)c4c(sc(C)c4C)-n4c(C)nnc43)CC2)n1,IC50,[1],122 nM
Cc1nc(Nc2ncc(C(=O)Nc3c(C)cccc3Cl)s2)cc(N2CCN(CCOC(=O)[C@@H]3CCCN3C(=O)C[C@@H]3N=C(c4ccc(Cl)cc4)c4c(sc(C)c4C)-n4c(C)nnc43)CC2)n1,IC50,[1],135 nM
Cc1nc(Nc2ncc(C(=O)Nc3c(C)cccc3Cl)s2)cc(N2CCN(C(=O)C[C@@H]3N=Cc4c(sc(C)c4C)-n4c(C)nnc43)CC2)n1,IC50,[1],980 nM
Cc1nc(Nc2ncc(C(=O)Nc3c(C)cccc3Cl)s2)cc(N2CCN(C(=O)CCCNC(=O)C[C@@H]3N=C(c4ccc(Cl)cc4)c4c(sc(C)c4C)-n4c(C)nnc43)CC2)n1,IC50,[1],1330 nM
Cc1nc(Nc2ncc(C(=O)Nc3c(C)cccc3Cl)s2)cc(N2CCN(CCOC(=O)[C@H](Cc3c[nH]c4ccccc34)NC(=O)C[C@@H]3N=C(c4ccc(Cl)cc4)c4c(sc(C)c4C)-n4c(C)nnc43)CC2)n1,IC50,[1],95 nM
Cc1nc(Nc2ncc(C(=O)Nc3c(C)cccc3Cl)s2)cc(N2CCN(CCOC(=O)[C@H](Cc3ccccc3)NC(=O)C[C@@H]3N=C(c4ccc(Cl)cc4)c4c(sc(C)c4C)-n4c(C)nnc43)CC2)n1,IC50,[1],197 nM
